Results from PMC3935314 (Biochemical pharmacology, 2013).

Biological target: GPR55 (Homo sapiens, UniProt Q9Y2T6)
Experiment: saturable fluorescent ligand uptake in live cells, reduced by GPR55 siRNA
Type: cell-based

GPR55, sequence (Q9Y2T6 whole entry): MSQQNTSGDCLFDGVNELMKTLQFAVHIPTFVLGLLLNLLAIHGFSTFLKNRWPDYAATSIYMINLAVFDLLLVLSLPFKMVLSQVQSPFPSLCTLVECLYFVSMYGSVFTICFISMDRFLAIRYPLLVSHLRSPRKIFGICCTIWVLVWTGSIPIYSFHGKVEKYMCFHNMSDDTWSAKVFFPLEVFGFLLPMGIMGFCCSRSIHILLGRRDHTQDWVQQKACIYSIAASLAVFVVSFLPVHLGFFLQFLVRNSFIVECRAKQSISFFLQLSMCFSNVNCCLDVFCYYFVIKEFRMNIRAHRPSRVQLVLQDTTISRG

With Tocrifluor 1117 [T1117] the EC50 was ~8 nM.
